According to US20250304576A1 (Cancer Research Technology Limited, priority 2022, published 2025):

Columns and labels:
Recombinant IKKβ = biological target: T1, Recombinant IKKβ (Homo sapiens, UniProt O14920); test: DELFIA IKKβ kinase assay (apparent Ki, Cheng-Prusoff); format: biochemical; details: non-italicised figure: DELFIA assay
T1 construct: purchased Millipore, Dundee, UK
T1 sequence (O14920 1-756): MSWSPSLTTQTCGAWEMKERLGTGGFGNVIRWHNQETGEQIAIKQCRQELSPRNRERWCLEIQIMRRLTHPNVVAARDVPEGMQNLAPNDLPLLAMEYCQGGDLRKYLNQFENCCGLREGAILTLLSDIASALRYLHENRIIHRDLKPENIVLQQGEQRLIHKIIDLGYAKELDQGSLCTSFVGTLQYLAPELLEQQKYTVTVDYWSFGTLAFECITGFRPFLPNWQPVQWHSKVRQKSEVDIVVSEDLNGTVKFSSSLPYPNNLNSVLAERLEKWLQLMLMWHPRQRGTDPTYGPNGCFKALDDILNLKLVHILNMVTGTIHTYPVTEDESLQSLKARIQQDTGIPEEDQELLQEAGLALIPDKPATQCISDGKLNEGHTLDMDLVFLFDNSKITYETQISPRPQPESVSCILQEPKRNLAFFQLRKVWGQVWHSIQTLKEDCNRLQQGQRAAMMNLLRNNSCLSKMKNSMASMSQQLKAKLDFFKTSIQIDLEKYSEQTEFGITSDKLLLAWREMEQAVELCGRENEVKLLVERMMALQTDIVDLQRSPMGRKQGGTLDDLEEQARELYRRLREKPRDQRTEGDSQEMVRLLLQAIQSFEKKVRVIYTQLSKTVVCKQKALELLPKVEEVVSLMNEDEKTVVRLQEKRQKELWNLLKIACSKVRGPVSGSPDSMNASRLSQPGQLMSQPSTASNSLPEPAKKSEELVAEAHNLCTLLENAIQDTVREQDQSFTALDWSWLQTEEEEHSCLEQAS
Method in brief: (§1)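 Recombinant IKKα or IKKβ (37 nM) with 0.375 μM biotinylated IκB-α (Ser32) peptide and 40 μM ATP in 40 mM Tris-HCl pH 7.5, 20 mM MgCl2, 60 min at 30° C. Phospho-substrate captured on streptavidin and detected by anti-phospho-IκB-α plus europium anti-mouse IgG time-resolved fluorescence; apparent Ki via Cheng-Prusoff.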

Recombinant IKKα = biological target: T2, Recombinant IKKα (Homo sapiens, UniProt O15111); test: DELFIA IKKα kinase assay (apparent Ki, Cheng-Prusoff); format: biochemical; details: non-italicised figure: DELFIA assay
T2 construct: purchased Millipore, Dundee, UK
T2 sequence (O15111 1-745): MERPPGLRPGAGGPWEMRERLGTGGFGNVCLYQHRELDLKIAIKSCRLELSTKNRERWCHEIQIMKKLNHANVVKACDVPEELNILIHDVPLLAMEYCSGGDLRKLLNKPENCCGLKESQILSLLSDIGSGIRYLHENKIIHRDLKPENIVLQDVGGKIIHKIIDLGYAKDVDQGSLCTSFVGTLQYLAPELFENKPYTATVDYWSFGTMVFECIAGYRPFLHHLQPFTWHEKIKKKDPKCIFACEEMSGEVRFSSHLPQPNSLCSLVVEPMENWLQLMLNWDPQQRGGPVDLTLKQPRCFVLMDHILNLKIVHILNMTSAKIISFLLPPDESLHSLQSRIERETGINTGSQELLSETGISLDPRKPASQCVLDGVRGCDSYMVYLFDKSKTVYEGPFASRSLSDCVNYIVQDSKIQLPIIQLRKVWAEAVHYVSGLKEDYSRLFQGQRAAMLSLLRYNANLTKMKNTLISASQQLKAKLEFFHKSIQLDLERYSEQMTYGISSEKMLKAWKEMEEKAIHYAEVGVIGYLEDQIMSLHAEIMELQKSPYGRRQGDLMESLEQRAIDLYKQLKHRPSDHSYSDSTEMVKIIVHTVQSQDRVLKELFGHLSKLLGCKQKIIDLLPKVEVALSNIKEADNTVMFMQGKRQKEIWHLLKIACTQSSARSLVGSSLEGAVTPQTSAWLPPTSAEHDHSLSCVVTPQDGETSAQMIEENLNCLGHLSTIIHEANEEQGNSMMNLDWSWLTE
Method in brief: as §1

With `Nc1cccc(C#Cc2c(-c3ccc4[nH]nc(N)c4c3)ccnc2N)c1` [Example 77, 5-(2-Amino-3-((3-aminophenyl)ethynyl)pyridine-4-yl)-1H-indazol-3-amine] as the molecule, how does the Ki (Recombinant IKKβ) read?
The Ki was 22 nM.

And the Ki (Recombinant IKKα)?
Its Ki is 4 nM.

What does the source list for `Nc1ccccc1C#Cc1c(-c2ccc3[nH]nc(N)c3c2)ccnc1N` [Example 78, 5-(2-Amino-3-((2-aminophenyl)ethynyl)pyridine-4-yl)-1H-indazol-3-amine]?
Ki (Recombinant IKKβ): 59 nM; Ki (Recombinant IKKα): 17 nM

Which Ki (Recombinant IKKβ) does the source give for `COC(=O)c1cccc(C#Cc2c(-c3ccc4[nH]nc(N)c4c3)ccnc2N)c1` [Example 79, Methyl 3-((2-amino-4-(3-amino-1H-indazol-5-yl)149yridine-3-yl)ethynyl)benzoate] here?
Its Ki is 128 nM.

What about the Ki (Recombinant IKKα) of the same molecule?
The Ki was 17 nM.

Which results are given for `COC(=O)c1ccc(C#Cc2c(-c3ccc4[nH]nc(N)c4c3)ccnc2N)cc1` [Example 80, Methyl 4-((2-amino-4-(3-amino-1H-indazol-5-yl)150yridine-3-yl)ethynyl)benzoate]?
Ki (Recombinant IKKβ): 15 nM; Ki (Recombinant IKKα): 2 nM

Which results are given for `COc1ccccc1C#Cc1c(-c2ccc3[nH]nc(N)c3c2)ccnc1N` [Example 81, 5-(2-Amino-3-((2-methoxyphenyl)ethynyl)pyridine-4-yl)-1H-indazol-3-amine]?
Ki (Recombinant IKKβ): 484 nM; Ki (Recombinant IKKα): 15 nM

How did the Ki (Recombinant IKKβ) turn out when `Nc1nccc(-c2ccc3[nH]nc(N)c3c2)c1C#CCCC(=O)c1ccccc1` [Example 82, 5-(2-Amino-4-(3-amino-1H-indazol-5-yl)pyridine-3-yl)-1-phenylpent-4-yn-1-one] was run?
Its Ki is 537 nM.

And the Ki (Recombinant IKKα)?
Its Ki is 19 nM.

`CC(C)(O)CCC#Cc1c(-c2ccc3[nH]nc(N)c3c2)ccnc1N` [Example 86, 6-(2-Amino-4-(3-amino-1H-indazol-5-yl)pyridine-3-yl)-2-methylhex-5-yn-2-ol] was tested. Which Ki (Recombinant IKKβ) did it give?
Its Ki is 390 nM.

What about the Ki (Recombinant IKKα) of the same molecule?
The Ki was 28 nM.

Which results are given for `Nc1nccc(-c2ccc3[nH]nc(N)c3c2)c1C#CCCN1CCOCC1` [Example 94, 5-(2-Amino-3-(4-morpholinobut-1-yn-1-yl)pyridin-4-yl)-1H-indazol-3-amine]?
Ki (Recombinant IKKβ): 922 nM; Ki (Recombinant IKKα): 38 nM

For `Nc1nccc(-c2ccc3[nH]nc(N)c3c2)c1C#CCC1CCNCC1` [Example 97, 5-(2-Amino-3-(3-(piperidin-4-yl)prop-1-yn-1-yl)pyridin-4-yl)-1H-indazol-3-amine], which Ki (Recombinant IKKβ) is on record?
The Ki was 105 nM.

What about the Ki (Recombinant IKKα) of the same molecule?
The Ki was 15 nM.

`CNC(=O)C#Cc1c(-c2ccc3[nH]nc(N)c3c2)ccnc1N` [Example 98, 3-(2-Amino-4-(3-amino-1H-indazol-5-yl)pyridin-3-yl)-N-methylpropiolamide] was tested. Which Ki (Recombinant IKKβ) did it give?
The Ki was over 10000 nM.

What about the Ki (Recombinant IKKα) of the same molecule?
The Ki was over 10000 nM.

Which Ki (Recombinant IKKβ) does the source give for `Nc1nccc(-c2ccc3[nH]nc(N)c3c2)c1C1CC1` [Example 100, 5-(2-Amino-3-cyclopropylpyridin-4-yl)-1H-indazol-3-amine] here?
The Ki was over 10000 nM.

What about the Ki (Recombinant IKKα) of the same molecule?
The Ki was 1790 nM.

`Nc1cc(-c2cc(-c3cccc(F)c3)c3[nH]nc(N)c3c2)ccn1` [Example 105, 5-(2-Aminopyridin-4-yl)-7-(3-fluorophenyl)-1H-indazol-3-amine] was tested. Which Ki (Recombinant IKKβ) did it give?
Its Ki is 500 nM.

And the Ki (Recombinant IKKα)?
The Ki was 40 nM.

Which results are given for `Nc1cc(-c2cc(-c3cccc(C(F)(F)F)c3)c3[nH]nc(N)c3c2)ccn1` [Example 106, 5-(2-Aminopyridin-4-yl)-7-(3-(trifluoromethyl)phenyl)-1H-indazol-3-amine]?
Ki (Recombinant IKKβ): 1010 nM; Ki (Recombinant IKKα): 162 nM

For `Nc1cccc(-c2cc(-c3ccnc(N)c3)cc3c(N)n[nH]c23)c1` [Example 107, 7-(3-Aminophenyl)-5-(2-aminopyridin-4-yl)-1H-indazol-3-amine], which Ki (Recombinant IKKβ) is on record?
The Ki was 545 nM.

What about the Ki (Recombinant IKKα) of the same molecule?
Its Ki is 14 nM.

What does the source list for `Nc1cc(-c2cc(-c3cccc(O)c3)c3[nH]nc(N)c3c2)ccn1` [Example 108, 3-(3-Amino-5-(2-aminopyridin-4-yl)-1H-indazol-7-yl)phenol]?
Ki (Recombinant IKKβ): 680 nM; Ki (Recombinant IKKα): 10 nM

With `COc1cccc(-c2cc(-c3ccnc(N)c3)cc3c(N)n[nH]c23)c1` [Example 109, 5-(2-Aminopyridin-4-yl)-7-(3-methoxyphenyl)-1H-indazol-3-amine] as the molecule, how does the Ki (Recombinant IKKβ) read?
Its Ki is 587 nM.

And the Ki (Recombinant IKKα)?
The Ki was 55 nM.

For `Nc1cc(-c2cc(-c3cccc(CO)c3)c3[nH]nc(N)c3c2)ccn1` [Example 110], which Ki (Recombinant IKKβ) is on record?
Its Ki is 290 nM.

And the Ki (Recombinant IKKα)?
The Ki was 29 nM.

Which results are given for `Nc1cc(-c2cc(-c3cccc(C=O)c3)c3[nH]nc(N)c3c2)ccn1` [Example 111, 3-(3-Amino-5-(2-aminopyridin-4-yl)-1H-indazol-7-yl)benzaldehyde]?
Ki (Recombinant IKKβ): 100 nM; Ki (Recombinant IKKα): 12 nM

Which Ki (Recombinant IKKβ) does the source give for `CCOC(=O)c1cccc(-c2cc(-c3ccnc(N)c3)cc3c(N)n[nH]c23)c1` [Example 112, Ethyl 3-(3-amino-5-(2-aminopyridin-4-yl)-1H-indazol-7-yl)benzoate] here?
The Ki was 1470 nM.

What about the Ki (Recombinant IKKα) of the same molecule?
The Ki was 152 nM.

What does the source list for `NC(=O)c1cccc(-c2cc(-c3ccnc(N)c3)cc3c(N)n[nH]c23)c1` [Example 113, 3-(3-Amino-5-(2-aminopyridin-4-yl)-1H-indazol-7-yl)benzamide]?
Ki (Recombinant IKKβ): 840 nM; Ki (Recombinant IKKα): 43 nM

How did the Ki (Recombinant IKKβ) turn out when `Nc1cc(-c2cc(-c3cccc(S(N)(=O)=O)c3)c3[nH]nc(N)c3c2)ccn1` [Example 114, 3-(3-Amino-5-(2-aminopyridin-4-yl)-1H-indazol-7-yl)benzenesulfonamide] was run?
The Ki was 461 nM.

What about the Ki (Recombinant IKKα) of the same molecule?
Its Ki is 7 nM.

How did the Ki (Recombinant IKKβ) turn out when `CS(=O)(=O)c1cccc(-c2cc(-c3ccnc(N)c3)cc3c(N)n[nH]c23)c1` [Example 115] was run?
The Ki was 2000 nM.

What about the Ki (Recombinant IKKα) of the same molecule?
Its Ki is 79 nM.

How did the Ki (Recombinant IKKβ) turn out when `Nc1cc(-c2cc(-c3cccc(CN4CCOCC4)c3)c3[nH]nc(N)c3c2)ccn1` [Example 116] was run?
Its Ki is 1010 nM.

What about the Ki (Recombinant IKKα) of the same molecule?
The Ki was 162 nM.

How did the Ki (Recombinant IKKβ) turn out when `Nc1cc(-c2cc(-c3ccc(O)cc3)c3[nH]nc(N)c3c2)ccn1` [Example 117, 4-(3-Amino-5-(2-aminopyridin-4-yl)-1H-indazol-7-yl)phenol] was run?
The Ki was 235 nM.

And the Ki (Recombinant IKKα)?
The Ki was 17 nM.

What does the source list for `Nc1cc(-c2cc(-c3ccc(CO)cc3)c3[nH]nc(N)c3c2)ccn1` [Example 118]?
Ki (Recombinant IKKβ): 406 nM; Ki (Recombinant IKKα): 29 nM

Which results are given for `CN(C)c1ccc(-c2cc(-c3ccnc(N)c3)cc3c(N)n[nH]c23)cc1` [Example 119, 5-(2-Aminopyridin-4-yl)-7-(4-(dimethylamino)phenyl)-1H-indazol-3-amine]?
Ki (Recombinant IKKβ): 2510 nM; Ki (Recombinant IKKα): 84 nM

For `NC(=O)c1ccc(-c2cc(-c3ccnc(N)c3)cc3c(N)n[nH]c23)cc1` [Example 120, 4-(3-Amino-5-(2-aminopyridin-4-yl)-1H-indazol-7-yl)benzamide], which Ki (Recombinant IKKβ) is on record?
The Ki was 1590 nM.

And the Ki (Recombinant IKKα)?
Its Ki is 56 nM.

Which results are given for `Nc1cc(-c2cc(-c3ccc(S(N)(=O)=O)cc3)c3[nH]nc(N)c3c2)ccn1` [Example 121, 4-(3-Amino-5-(2-aminopyridin-4-yl)-1H-indazol-7-yl)benzenesulfonamide]?
Ki (Recombinant IKKβ): 1480 nM; Ki (Recombinant IKKα): 27 nM

Which results are given for `Nc1cc(-c2cc(-c3ccc(CN4CCOCC4)cc3)c3[nH]nc(N)c3c2)ccn1` [Example 122, 5-(2-Aminopyridin-4-yl)-7-(4-(morpholinomethyl)phenyl)-1H-indazol-3-amine]?
Ki (Recombinant IKKβ): 1260 nM; Ki (Recombinant IKKα): 52 nM

What does the source list for `CC(C)(C)c1ccc(-c2cc(-c3ccnc(N)c3)cc3c(N)n[nH]c23)cc1` [Example 123, 5-(2-Aminopyridin-4-yl)-7-(4-(tert-butyl)phenyl)-1H-indazol-3-amine]?
Ki (Recombinant IKKβ): 1500 nM; Ki (Recombinant IKKα): 160 nM

For `Nc1cc(-c2cc(-c3ccccc3Cl)c3[nH]nc(N)c3c2)ccn1` [Example 124, 5-(2-Aminopyridin-4-yl)-7-(2-chlorophenyl)-1H-indazol-3-amine], which Ki (Recombinant IKKβ) is on record?
Its Ki is 1760 nM.

And the Ki (Recombinant IKKα)?
The Ki was 224 nM.

Which Ki (Recombinant IKKβ) does the source give for `Nc1cc(-c2cc(-c3ccccc3CO)c3[nH]nc(N)c3c2)ccn1` [Example 125] here?
Its Ki is 796 nM.

And the Ki (Recombinant IKKα)?
Its Ki is 183 nM.

What does the source list for `Cc1cc(S(N)(=O)=O)ccc1-c1cc(-c2ccnc(N)c2)cc2c(N)n[nH]c12` [Example 126, 4-(3-Amino-5-(2-aminopyridin-4-yl)-1H-indazol-7-yl)-3-methylbenzenesulfonamide]?
Ki (Recombinant IKKβ): 5030 nM; Ki (Recombinant IKKα): 571 nM
